The test system of one data set is 9L cells. As to conditions: one hour exposure, MTT and BrdU assays after 7 days. On the procedure:
Cytotoxicity Study. 9L cells were grown to confluence in 96-well plates. Individual wells were exposed to no treatment or increasing concentrations of melphalan, TAT monomer, melphalan-conjugated TAT monomer (obtained from a supplier) or melphalan-conjugated TAT dimer (obtained from a supplier). Cells were incubated under these conditions for one hour. Growth factors were then reintroduced and the cells were grown for a week with standard periodic care. After 7 days, MTT and BrdU assays were used to assess cell viability. All tests were done in quadruplicate and data normalized to the untreated group. […] IV injection of the […]
A general note: Formazan colour is commonly taken as a measure of viable cells.

A further data set deals with 9L glioma. Put plainly: Survival after IA-TCH delivery of melphalan or melphalan-conjugated TAT. To be noted: for Bleeding events: IA-TCH. The format is in vivo, rat. On the procedure: Thirteen 9L glioma-implanted anesthetized rats were intubated and ventilated. The carotid artery of each rat was exposed and cannulated but the ICA was not isolated to minimize surgical trauma. The rats were subjected to delivery of melphalan with adenosine, esmolol and cold saline via IA-TCH. Six rats received 0.25 mg of melphalan, three rats received 0.5 mg melphalan and one rat received 1 mg of melphalan. Remaining rats were either treated with saline or left untreated. After the IA-TCH injection, rats were allowed to recover and sacrificed when pre-determined criteria were met.
A similar procedure was performed on seven 9L glioma-implanted rats using melphalan-conjugated TAT monomer at a dose of 1 mg (0.16 mg melphalan content). However, the ICA was isolated with an aneurysm clip. Survival of the rats was monitored and images of the brains of the rats were obtained by MRI. The same procedure was performed using 5 rats with melphalan-conjugated TAT dimer at a dose of 1 mg (0.08 mg melphalan content).

The test system of a further data set is 9L-Luc gliosarcoma cells. The data set is described as follows: In vitro cytotoxicity (BrdU and bioluminescence assays). Format: cell-based. To be noted: 1-100 μM, 1-hour exposure, viability at 24 hours. On the procedure:
In vitro cytotoxicity studies and uptake analysis. […] 9L luciferase-expressing (9L-Luc) gliosarcoma cells (provided by Dr. Brian Ross University of Michigan, Ann Arbor) were incubated in a 96 well plate and grown to 95% confluence. 9L-Luc cells were cultured in Delbecco's Modified Eagle Medium (DMEM) with fetal bovine serum (10%), streptomycin ([…]) and penicillin (100 U/ml) and 1-glutamine 2 mM in an atmosphere 95/5% O2 and CO2 with 100% humidity. They were exposed to 1, 10, and 100 μM of the compound for 1-hour and assessed for viability at 24 hours. Data for all three assays was normalized to the survival of untreated cells. Assays were run in triplicate and fluorescence values were averaged for each treatment. The 3% hydrogen peroxide treated cells provided positive controls.

The nature of data set [1]: Delivery of cell-penetrating peptides to the brain of healthy rats, confocal microscopy. The format is in vivo, rat. As to conditions: rat, in vivo. An excerpt: Animal preparation, IA-TCH injection, and brain tumor implantation. Animal protocols were approved by the Columbia University Institutional Animal Care and Use Committee (IACUC). Studies were primarily conducted on Sprague-Dawley rats weighing 250 to 300 grams. In the case of electron multiplying charge-coupled device imaging studies, Fisher 344 rats implanted with 9L brain tumors were utilized. The surgical preparation including anesthesia, carotid and femoral cannulation, cerebral blood flow and vital sign monitoring, as well as in vivo fluorescence imaging have been previously described in detail.
IA injections of cell-penetrating peptides (CPPs) were made during TCH as 65 μL pulses totaling 1 ml in volume. TCH was produced by a bolus injection of adenosine, esmolol, and cold saline. Animals were allowed to hemodynamically recover from TCH and euthanized 10 minutes after injection. Uptake of CPPs was assessed with a fluorescence camera and with confocal fluorescence microscopy.
Cell-penetrating peptides. Two experimental cell-penetrating peptides were tested: 1. octaarginine, also called (Arg)8 or R-8 (SEQ ID NO: 13) and 2. trans-activator of transcription or TAT (Lifetien Inc.). The 14 amino acid peptide sequence for TAT is […]COOH (SEQ ID NO: 11). Both cell-penetrating peptides (CPPs) were labeled with fluorescein so that their distribution could be identified by multispectral imaging and with fluorescence microscopy of the frozen brain sections.
Fluorescence and electron multiplying charge-coupled device imaging.

Another data set deals with 9L-gliosarcoma cells. The data set is described as follows: Membrane fluidity with beta-cyclodextrin cholesterol depletion. Format: cell-based. As to conditions: 4° C. and 37° C., FIG. 33C. On the procedure: 9L-gliosarcoma cells were grown to confluence in T-75 in recommended culture media. Membrane fluidity was determined by using commercially available “Gene Marker” kit. Fluorescein tagged TAT was used for determining uptake of the cell penetrating peptide. To alter membrane fluidity TAT uptake was determined at different temperatures of 4° C., 15° C. 25° C., 35° C. and 37° C.
The role of cholesterol in affecting membrane fluidity was then assessed. Cholesterol content of the membrane was measured using the commercially available Fillipin-III assay. Beta-cyclodextrin was used to deplete membrane cholesterol. The effect of cyclodextrin on TAT uptake of 100 μL at 0.1 mg/mL for 10 minutes at different temperatures was then assessed. Fluorescence was assessed by flow cytometry and confocal imaging was performed as needed.

For a further data set, the system named is 9L glioma tumor. The data set is described as follows: In vivo uptake of TAT dimer versus monomer by IA-TCH (MSI and confocal imaging). Also noted: species or system rat. As to conditions: dimer 0.25 mg, monomer 0.125 mg, five rats each. On the procedure: An additional experiment was performed to assess the in vivo uptake of fluorescein-labeled TAT dimer by IA-TCH. About 14 days after 9L glioma tumor implantation, rats were anesthetized and prepared for TAT dimer delivery experiments. TAT dimer was conjugated with fluorescein such that its concentrations in post mortem samples could be determined immediately by multispectral imaging and confocal imaging. TAT dimer (0.25 mg) and monomer (0.125 mg) were tested using IA-TCH delivery both containing equal amounts of fluorescein were evaluated. […] Animals were sacrificed 15 minutes after TAT injection. Brain tissue was harvested.

Where a SMILES comes first, the peptide text is derived from it. Where no end group is shown, it is not given here. [ ]: non-standard residue; d: D form. The star is where a group is joined. Phe(4-N(CH2CH2Cl)2) = N[C@@H](Cc1ccc(N(CCCl)CCCl)cc1)C(=O)O; 5FAM = O=C1OC2(c3ccc(O)cc3Oc3cc(O)ccc32)c2ccc(C(=O)*)cc21

Regarding `N=C(N)NCCC[C@H](NC(=O)CNC(=O)[C@H](CCC(N)=O)NC(=O)[C@H](CCC(N)=O)NC(=O)[C@@H]1CCCN1C(=O)[C@@H]1CCCN1C(=O)[C@H](CCCNC(=N)N)NC(=O)[C@H](CCCNC(=N)N)NC(=O)[C@H](CCCNC(=N)N)NC(=O)[C@H](CCC(N)=O)NC(=O)[C@H](CCCNC(=N)N)NC(=O)[C@H](CCCNC(=N)N)NC(=O)[C@H](CCCCN)NC(=O)[C@H](CCCCN)NC(=O)[C@H](CCCNC(=N)N)NC(=O)CNC(=O)[C@@H](N)Cc1ccc(N(CCCl)CCCl)cc1)C(=O)N[C@@H](CCCCN)C(=O)N[C@@H](CCCCN)C(=O)N[C@@H](CCCNC(=N)N)C(=O)N[C@@H](CCCNC(=N)N)C(=O)N[C@@H](CCC(N)=O)C(=O)N[C@@H](CCCNC(=N)N)C(=O)N[C@@H](CCCNC(=N)N)C(=O)N[C@@H](CCCNC(=N)N)C(=O)N1CCC[C@H]1C(=O)N1CCC[C@H]1C(=O)N[C@@H](CCC(N)=O)C(=O)N[C@@H](CCC(N)=O)C(=O)O` [melphalan-conjugated TAT dimer] (H-[Phe(4-N(CH2CH2Cl)2)]GRKKRRQRRRPPQQGRKKRRQRRRPPQQ-OH), the “Relative cytotoxicity (cell viability)” value in the data set with 9L cells is “cytotoxicity increases from TAT monomer to melphalan-conjugated TAT monomer to melphalan-conjugated TAT dimer to melphalan alone”. Further, the Bleeding events result in the data set with 9L glioma is “No significant bleeding events”.

For the compound `COc1cccc2c1C(=O)c1c(O)c3c(c(O)c1C2=O)C[C@@](O)(C(=O)CO)C[C@@H]3O[C@H]1C[C@H](N)[C@H](O)[C@H](C)O1` [Dox, Doxorubicin], in the data set with 9L-Luc gliosarcoma cells, the “Relative toxicity (cellular viability)” value is “highest toxicity”.

For the compound “octaarginine (RRRRRRRR; also: FITC label, position not given here) [FITC labeled R8, reference compound]”, in data set [1], the Deposition by hemisphere entry is “detectable deposition preferentially to the hemisphere ipsilateral to carotid injection”; the “Distribution in the brain (semi-quantitative)” value is “more discrete and predominantly within vessel walls”.

With `N=C(N)NCCC[C@H](NC(=O)CNC(=O)[C@@H](N)Cc1ccc(N(CCCl)CCCl)cc1)C(=O)N[C@@H](CCCCN)C(=O)N[C@@H](CCCCN)C(=O)N[C@@H](CCCNC(=N)N)C(=O)N[C@@H](CCCNC(=N)N)C(=O)N[C@@H](CCC(N)=O)C(=O)N[C@@H](CCCNC(=N)N)C(=O)N[C@@H](CCCNC(=N)N)C(=O)N[C@@H](CCCNC(=N)N)C(=O)N1CCC[C@H]1C(=O)N1CCC[C@H]1C(=O)N[C@@H](CCC(N)=O)C(=O)N[C@@H](CCC(N)=O)C(=O)O` [melphalan-conjugated TAT monomer], the “Relative cytotoxicity (cell viability)” value with 9L cells is given as “cytotoxicity increases from TAT monomer to melphalan-conjugated TAT monomer to melphalan-conjugated TAT dimer to melphalan alone”. Besides, the Tolerability entry in the data set with 9L glioma (1 mg IA-TCH) is “well tolerated”. Also, in the data set on 9L glioma, the Bleeding events result was “Only one of seven animals showed some evidence of a tail bleed”.

For `OC[C@H]1O[C@@H]2O[C@H]3[C@H](O)[C@@H](O)[C@@H](O[C@H]4[C@H](O)[C@@H](O)[C@@H](O[C@H]5[C@H](O)[C@@H](O)[C@@H](O[C@H]6[C@H](O)[C@@H](O)[C@@H](O[C@H]7[C@H](O)[C@@H](O)[C@@H](O[C@H]8[C@H](O)[C@@H](O)[C@@H](O[C@H]1[C@H](O)[C@H]2O)O[C@@H]8CO)O[C@@H]7CO)O[C@@H]6CO)O[C@@H]5CO)O[C@@H]4CO)O[C@@H]3CO` [beta-cyclodextrin], the “Effect on membrane fluidity” value in the data set with 9L-gliosarcoma cells is “increased fluidity at higher temperatures (37° C.) than at lower temperature (4° C.) in a dose-dependent manner”.

`N=C(N)NCCC[C@H](NC(=O)CNC(=O)[C@H](CCC(N)=O)NC(=O)[C@H](CCC(N)=O)NC(=O)[C@@H]1CCCN1C(=O)[C@@H]1CCCN1C(=O)[C@H](CCCNC(=N)N)NC(=O)[C@H](CCCNC(=N)N)NC(=O)[C@H](CCCNC(=N)N)NC(=O)[C@H](CCC(N)=O)NC(=O)[C@H](CCCNC(=N)N)NC(=O)[C@H](CCCNC(=N)N)NC(=O)[C@H](CCCCN)NC(=O)[C@H](CCCCN)NC(=O)[C@H](CCCNC(=N)N)NC(=O)CNC(=O)c1ccc2c(c1)C(=O)OC21c2ccc(O)cc2Oc2cc(O)ccc21)C(=O)N[C@@H](CCCCN)C(=O)N[C@@H](CCCCN)C(=O)N[C@@H](CCCNC(=N)N)C(=O)N[C@@H](CCCNC(=N)N)C(=O)N[C@@H](CCC(N)=O)C(=O)N[C@@H](CCCNC(=N)N)C(=O)N[C@@H](CCCNC(=N)N)C(=O)N[C@@H](CCCNC(=N)N)C(=O)N1CCC[C@H]1C(=O)N1CCC[C@H]1C(=O)N[C@@H](CCC(N)=O)C(=O)N[C@@H](CCC(N)=O)C(=O)O` [fluorescein-labeled TAT dimer, 5-FAM-GRKKRRQRRR PPQQGRKKRR QRRRPPQQ-COOH] (5FAM-GRKKRRQRRRPPQQGRKKRRQRRRPPQQ-OH): the Tumor selective delivery result in the data set on 9L glioma tumor is given as “able to achieve tumor selective drug delivery”.

Take `N=C(N)NCCC[C@H](NC(=O)CN)C(=O)N[C@@H](CCCCN)C(=O)N[C@@H](CCCCN)C(=O)N[C@@H](CCCNC(=N)N)C(=O)N[C@@H](CCCNC(=N)N)C(=O)N[C@@H](CCC(N)=O)C(=O)N[C@@H](CCCNC(=N)N)C(=O)N[C@@H](CCCNC(=N)N)C(=O)N[C@@H](CCCNC(=N)N)C(=O)N1CCC[C@H]1C(=O)N1CCC[C@H]1C(=O)N[C@@H](CCC(N)=O)C(=O)N[C@@H](CCC(N)=O)C(=O)O` [TAT monomer]: in the data set with 9L cells, the “Relative cytotoxicity (cell viability)” value is recorded as “cytotoxicity increases from TAT monomer to melphalan-conjugated TAT monomer to melphalan-conjugated TAT dimer to melphalan alone”.

Take `N[C@@H](Cc1ccc(N(CCCl)CCCl)cc1)C(=O)O` [melphalan, Melphalan, reference compound]: the “Relative cytotoxicity (cell viability)” value in the data set with 9L cells was “cytotoxicity increases from TAT monomer to melphalan-conjugated TAT monomer to melphalan-conjugated TAT dimer to melphalan alone”. Besides, the “Dose group with peak survival” value with 9L glioma (0.25, 0.5, 1 mg IA-TCH) is reported as “peak survival was found in the 0.25 mg melphalan group”. Also, the Bleeding events result in the data set with 9L glioma is reported as “significant bleeding”. Further, the Survival with 9L glioma (melphalan 0.25, 0.5 or 1 mg IA-TCH, p=0.07 versus controls) was determined as 30 ± 8 days.

(Values after patent US11980667B2, “Short TAT oligomers for drug delivery” (The Trustees of Columbia University in the City of New York, priority 2017, dated 2024).)
